Reference: ChEMBL document CHEMBL5360672, “Identification of Novel Dual-Target Estrogen Receptor α Degraders with Tubulin Inhibitory Activity for the Treatment of Endocrine-Resistant Breast Cancer” (J Med Chem, 2023)
Calls of active or inactive are those of the source. No cut-off for these calls is given here.

Assays:
MCF7 [1] = experiment: Antiproliferative activity against ERalpha positive human MCF7 cells assessed as inhibition of cell proliferation incubated for 72 hrs by CCK8 assay; format: functional, cell-based; conditions: MCF7, 72 h
[2] = Cytotoxicity against human MCF-10A cells assessed as inhibition of cell proliferation incubated for 72 hrs by CCK8 assay; format: toxicity, cell-based
Homo sapiens = species on record: Homo sapiens; experiment: Selectivity ratio of relative binding affinity for human ERalpha to relative binding affinity to human ERbeta
[3] = target: T1, Estrogen receptor (Homo sapiens) (UniProt P03372); experiment: Binding affinity to human ERalpha assessed as relative binding affinity incubated under vibration for 1 min followed by 2 hrs incubation under dark condition by fluorescence polarization assay relative to estradiol; conditions: time 121.0 min
T1 sequence (whole entry): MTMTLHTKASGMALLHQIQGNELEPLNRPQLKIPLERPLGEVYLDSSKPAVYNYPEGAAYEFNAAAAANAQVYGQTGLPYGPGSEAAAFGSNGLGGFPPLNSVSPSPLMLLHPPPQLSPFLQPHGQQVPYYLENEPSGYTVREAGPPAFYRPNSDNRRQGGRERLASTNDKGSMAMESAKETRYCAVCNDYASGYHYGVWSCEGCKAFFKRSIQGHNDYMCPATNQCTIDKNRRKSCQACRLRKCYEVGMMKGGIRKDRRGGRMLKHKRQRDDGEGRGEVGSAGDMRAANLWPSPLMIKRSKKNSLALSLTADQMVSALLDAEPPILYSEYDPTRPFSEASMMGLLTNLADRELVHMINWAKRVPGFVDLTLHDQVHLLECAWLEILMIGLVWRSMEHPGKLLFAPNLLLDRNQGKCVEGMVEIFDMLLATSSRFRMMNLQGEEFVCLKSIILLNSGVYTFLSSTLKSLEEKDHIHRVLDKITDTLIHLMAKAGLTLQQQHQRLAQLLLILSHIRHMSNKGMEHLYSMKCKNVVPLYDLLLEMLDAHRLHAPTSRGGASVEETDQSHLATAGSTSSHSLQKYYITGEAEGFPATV

[4] = target: Estrogen receptor beta (Homo sapiens) (UniProt Q92731); experiment: Binding affinity to human ERbeta assessed as relative binding affinity incubated under vibration for 1 min followed by 2 hrs incubation under dark condition by fluorescence polarization assay relative to estradiol; conditions: time 121.0 min
[5] = target: T1, Estrogen receptor (Homo sapiens); experiment: Induction of ERalpha degradation in human MCF7 cells at 5 uM incubated for 24 hrs by Western blot analysis; format: cell-based
Tubulin (Homo sapiens) = Tubulin (Homo sapiens) (UniProt P68371+Q9H4B7+P0DPH7+P68366+Q13509+Q71U36+P04350+Q3ZCM7+P07437+P68363+Q9BQE3+Q6PEY2+Q13885+Q9BVA1+Q9BUF5); experiment: Inhibition of tubulin polymerization (unknown origin) at 30 uM incubated for 60 mins by microplate reader analysis; format: protein-complex assay
MDA-MB-231 = experiment: Antiproliferative activity against ERalpha negative human MDA-MB-231 cells assessed as inhibition of cell proliferation incubated for 72 hrs by CCK8 assay; format: functional, cell-based; conditions: MDA-MB-231, 72 h
[6] = Selectivity index, ratio of IC50 for cytotoxicity against human MCF-10A cells to IC50 for antiproliferative activity against human MCF7 cells; format: toxicity, cell-based; conditions: MCF-10A cells and MCF7 cells, read-out: Ratio IC50
T47D [7] = experiment: Antiproliferative activity against ERalpha positive human T47D cells assessed as inhibition of cell proliferation incubated for 72 hrs by CCK8 assay; format: functional, cell-based
[8] = Antiproliferative activity against human Tamoxifen-resistant LCC2 cells assessed as inhibition of cell proliferation incubated for 72 hrs by CCK8 assay; format: functional, cell-based
T47D [9] = experiment: Antiproliferative activity against human T47D cells harboring ERalpha D538G mutant assessed as inhibition of cell proliferation incubated for 72 hrs by CCK8 assay; format: functional, cell-based
T47D [10] = experiment: Antiproliferative activity against human T47D cells harboring ERalpha Y537S mutant assessed as inhibition of cell proliferation incubated for 72 hrs by CCK8 assay; format: functional, cell-based
MCF7 [11] = experiment: Antitumor activity against human MCF7 cells xenografted in Balb/c nude mouse assessed as tumor growth inhibition at 4 mg/kg, ip administered every other day for 20 days relative to control; format: functional; conditions: MCF7, 480 h, time 20 day, read-out: TGI
[12] = Antitumor activity against human Tamoxifen-resistant LCC2 cells xenografted in Balb/c nude mouse assessed as tumor growth inhibition at 4 mg/kg, ip administered every other day for 20 days relative to control; format: functional; conditions: Tamoxifen-resistant LCC2 cell, 480 h, time 20 day, read-out: TGI

Estrogen receptor beta (Homo sapiens), sequence (Q92731 whole entry): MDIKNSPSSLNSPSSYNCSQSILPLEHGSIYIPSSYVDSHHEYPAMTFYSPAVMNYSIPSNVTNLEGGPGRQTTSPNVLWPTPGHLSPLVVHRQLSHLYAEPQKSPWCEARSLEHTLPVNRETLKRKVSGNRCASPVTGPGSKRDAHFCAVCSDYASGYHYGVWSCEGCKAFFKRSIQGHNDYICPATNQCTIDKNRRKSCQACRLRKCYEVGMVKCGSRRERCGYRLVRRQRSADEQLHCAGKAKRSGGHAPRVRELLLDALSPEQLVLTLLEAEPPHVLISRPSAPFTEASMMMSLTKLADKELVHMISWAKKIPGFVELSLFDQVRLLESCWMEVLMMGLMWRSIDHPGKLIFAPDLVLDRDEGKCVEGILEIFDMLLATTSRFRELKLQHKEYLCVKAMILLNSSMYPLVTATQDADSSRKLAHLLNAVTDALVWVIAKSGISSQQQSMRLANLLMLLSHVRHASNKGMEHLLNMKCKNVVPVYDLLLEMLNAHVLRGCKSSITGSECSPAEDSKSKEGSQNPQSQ

Compound	IC50 (MCF7 [1])	IC50 at 72 h [2]	Selectivity ratio (Homo sapiens)	RBA [3]	RBA [4]	Activity [5]	tubulin polymerization inhibition (active/not active) (Tubulin (Homo sapiens))	IC50 (MDA-MB-231)	selectivity ratio [6]	IC50 (T47D [7])	IC50 [8]	IC50 (T47D [9])	IC50 (T47D [10])	inhibition in vivo at 4 mg/kg (MCF7 [11])	inhibition in vivo at 4 mg/kg [12]
N#C[Se]CCCCCC(=O)Nc1ccccc1	3.54 µM	2.26 µM	7	0.04%	0.01%	inactive	Active	0.36 µM	0.64	4.28 µM					
CC/C(=C(\c1ccc(O)cc1)c1ccc(OCCN(C)C)cc1)c1ccccc1 [AFIMOXIFENE]								17.2 µM			20.9 µM	9.13 µM	8.9 µM		
O=S(=O)(Oc1ccccc1)C1CC2OC1C(c1ccc(O)cc1)=C2c1ccc(O)cc1 (stereo not drawn)		> 60 µM				inactive	inactive		> 4.11	> 31 µM	25 µM	> 31 µM			
CC/C(=C(\c1ccccc1)c1ccc(OCCN(C)C)cc1)c1ccccc1 [TAMOXIFEN]														71.4%	6.25%
